The target of experiment [1] is T1, ORL1 receptor (Homo sapiens, UniProt P41146).
T1 construct: expressed in transfected cells; host or cells: CHO (recombinant CHO-ORL1 cells), membranes
The experiment is described as follows: ORL1 receptor binding assay with 3H-nociceptin/orphanin FQ (WGA-SPA beads). Conditions: c=1 μM test substance; 0.5 nM 3H-nociceptin/orphanin FQ; membranes of recombinant CHO-ORL1 cells. The method, then: Measurement of ORL1 Binding
The cyclohexane derivatives having the general formula I were investigated in a receptor binding assay with ^3H-nociceptin/orphanin FQ with membranes of recombinant CHO—ORL1 cells. This test system was conducted in accordance with the method described by Ardati et al. (Mol. Pharmacol., 51, 1997, p. 816-824). The concentration of ^3H-nociceptin/orphanin FQ in these tests was 0.5 nM. The binding assays were carried out with 20 μg amounts of membrane protein per 200 μl batch in 50 mM Hepes, pH 7.4, 10 mM MgCl2 and 1 mM EDTA. The binding to the ORL1 receptor was determined using 1 mg amounts of WGA-SPA beads (Amersham-Pharmacia, Freiburg, Germany), by incubation of the batch for one hour at room temperature and subsequent measurement in a Trilux scintillation counter (Wallac, Finland). The affinity is given in Table 1 as the nanomolar Ki value or in % inhibition at c=1 μM.

The target of experiment [2] is T2, human μ-opiate receptor (Homo sapiens, UniProt P35372).
T2 construct: purchased NEN, Zaventem, Belgium RB-HOM; host or cells: CHO-K1 cells (membrane preparation)
The experiment is described as follows: μ-opiate receptor binding assay with [3H] naloxone (WGA-SPA beads). Conditions: 1 μmol/l test substance; 1 nmol/l [3H] naloxone; CHO-K1 cell membranes expressing human μ-opiate receptor. How it is done: The receptor affinity to the human μ-opiate receptor was determined in a homogeneous batch in microtitre plates. To this end, dilution series of the substituted indole derivative to be tested were incubated for 90 minutes at room temperature with a receptor membrane preparation (15-40 μg protein per 250 μl incubation batch) of CHO-K1 cells, which express the human μ-opiate receptor (RB—HOM receptor membrane preparation from NEN, Zaventem, Belgium), in the presence of 1 nmol/l of the radioactive ligand [^3H] naloxone (NET719, NEN, Zaventem, Belgium) and 1 mg of WGA-SPA beads (wheat germ agglutinin SPA beads from Amersham/Pharmacia, Freiburg, Germany) in a total volume of 250 μl. 50 mmol/l tris-HCl supplemented with 0.05 wt. % sodium azide and 0.06 wt. % bovine serum albumin were used as the incubation buffer. In order to determine the non-specific binding, 25 μmol/l of naloxone were also added. At the end of the ninety-minute incubation period the microtitre plates were centrifuged for 20 minutes at 1000 g and the radioactivity was measured in a β counter (Microbeta-Trilux, PerkinElmer Wallac, Freiburg, Germany). The percentage displacement of the radioactive ligand from its binding to the human μ-opiate receptor was determined at a test substance concentration of 1 μmol/l and stated as the percentage inhibition (% inhibition) of the specific binding. In some cases the percentage displacement due to differing concentrations of the compounds having the general formula I to be tested was used to calculate the IC50 inhibition concentrations which bring about a 50-percent displacement of the radioactive ligand. Ki values for the test substances were obtained by extrapolation using the Cheng-Prusoff equation.

T1 sequence (P41146 whole entry): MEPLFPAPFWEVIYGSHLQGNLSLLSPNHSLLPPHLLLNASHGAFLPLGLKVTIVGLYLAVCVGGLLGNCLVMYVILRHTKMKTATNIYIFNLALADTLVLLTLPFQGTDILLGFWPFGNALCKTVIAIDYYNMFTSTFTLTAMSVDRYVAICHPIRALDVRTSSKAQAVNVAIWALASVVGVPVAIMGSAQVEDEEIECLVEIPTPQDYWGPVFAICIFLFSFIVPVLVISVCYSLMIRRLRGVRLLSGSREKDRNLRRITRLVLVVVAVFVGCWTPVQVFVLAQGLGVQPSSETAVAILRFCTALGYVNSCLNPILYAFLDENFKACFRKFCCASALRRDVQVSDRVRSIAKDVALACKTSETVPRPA
T2 sequence (P35372 whole entry): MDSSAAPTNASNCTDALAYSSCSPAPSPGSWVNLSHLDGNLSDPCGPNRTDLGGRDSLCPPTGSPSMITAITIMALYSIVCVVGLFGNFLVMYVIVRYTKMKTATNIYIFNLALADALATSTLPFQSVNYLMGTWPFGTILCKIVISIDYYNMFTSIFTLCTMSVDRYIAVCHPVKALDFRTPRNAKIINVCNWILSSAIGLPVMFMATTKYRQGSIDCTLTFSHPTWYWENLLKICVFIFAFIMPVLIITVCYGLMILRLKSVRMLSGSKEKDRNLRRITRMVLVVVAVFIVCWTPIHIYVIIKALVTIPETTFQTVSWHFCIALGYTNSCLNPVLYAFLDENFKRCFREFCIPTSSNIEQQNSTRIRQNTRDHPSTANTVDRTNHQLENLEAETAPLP

Turning to `CN(CCCN1CCC(c2ccccc2)(N(C)C)CC1)C(=O)C1CCCc2c1[nH]c1ccc(Cl)cc21` (stereo not drawn) [Example 35, 6-Chloro-N-(3-(4-(dimethylamino)-4-phenylpiperidin-1-yl)propyl)-N-methyl-2,3,4,9-tetrahydro-1H-carbazole-1-carboxamide], the inhibition at 1 µM in experiment [1] worked out at 79%; in experiment [2] it was 57%.

For `CN(CCN1CCC(c2ccccc2)(N2CCCC2)CC1)C(=O)Cc1c[nH]c2cc(F)ccc12` [Example 36, 2-(6-Fluoro-1H-indol-3-yl)-N-methyl-N-(2-(4-phenyl-4-(pyrrolidin-1-yl)piperidin-1-yl)ethyl)acetamide], the inhibition at 1 µM in experiment [1] came to 31%; in experiment [2], 62%.

Consider `CN(CCN1CCC(c2ccccc2)(N2CCCC2)CC1)C(=O)c1ccc2ccn(C)c2c1` [Example 37, N,1-Dimethyl-N-(2-(4-phenyl-4-(pyrrolidin-1-yl)piperidin-1-yl)ethyl)-1H-indole-6-carboxamide], for which the inhibition at 1 µM was found to be 16% in experiment [1] and 47% in experiment [2].

On to `CN(CCCN1CCC(c2ccccc2)(N(C)C)CC1)C(=O)c1ccc2ccn(C)c2c1` [Example 39, N-(3-(4-(Dimethylamino)-4-phenylpiperidin-1-yl)propyl)-N,1-dimethyl-1H-indole-6-carboxamide], for which the inhibition at 1 µM in experiment [1] turned out to be 32%; in experiment [2], 76%.

For the compound `CCCCC1(N(C)C)CCN(CCN(C)C(=O)c2cccc3c2ccn3C)CC1` [Example 41, N-(2-(4-Butyl-4-(dimethylamino)piperidin-1-yl)ethyl)-N,1-dimethyl-1H-indole-4-carboxamide], the values for the inhibition at 1 µM in experiment [1] and in experiment [2] were 17% and 63%, respectively.

Turning to `CN(CCN1CCC(c2ccccc2)(N2CCCC2)CC1)C(=O)C1CCCc2c1[nH]c1ccc(Cl)cc21` (stereo not drawn) [Example 42, 6-Chloro-N-methyl-N-(2-(4-phenyl-4-(pyrrolidin-1-yl)piperidin-1-yl)ethyl)-2,3,4,9-tetrahydro-1H-carbazole-1-carboxamide], the inhibition at 1 µM came out at 22% in experiment [1] and 28% in experiment [2].

For `CCCCC1(N(C)C)CCN(CCN(C)C(=O)C2CCCc3c2[nH]c2ccc(Cl)cc32)CC1` (stereo not drawn) [Example 43, N-(2-(4-Butyl-4-(dimethylamino)piperidin-1-yl)ethyl)-6-chloro-N-methyl-2,3,4,9-tetrahydro-1H-carbazole-1-carboxamide], the inhibition at 1 µM in experiment [1] is 21%; in experiment [2], 54%.

Take `CCCCC1(N(C)C)CCN(CCN(C)C(=O)Cc2c[nH]c3cc(F)ccc23)CC1` [Example 44, N-(2-(4-Butyl-4-(dimethylamino)piperidin-1-yl)ethyl)-2-(6-fluoro-1H-indol-3-yl)-N-methylacetamide]: the “% Inhibition (ORL1) at 1 μM” value in experiment [1] was 50%. The “% Inhibition (μ) at 1 μM” value in experiment [2] is 92%.

Regarding `CN(CCCN1CCC(c2ccccc2)(N(C)C)CC1)C(=O)Cc1c[nH]c2cc(F)ccc12` [Example 45, N-(3-(4-(Dimethylamino)-4-phenylpiperidin-1-yl)propyl)-2-(6-fluoro-1H-indol-3-yl)-N-methylacetamide], the inhibition at 1 µM in experiment [1] stood at 49%; in experiment [2] it was 82%.

Take `CCCCC1(N(C)C)CCN(CCN(C)C(=O)CCc2cn(C)c3ccccc23)CC1` [Example 49, N-(2-(4-Butyl-4-(dimethylamino)piperidin-1-yl)ethyl)-N-methyl-3-(1-methyl-1H-indol-3-yl)propanamide]: the inhibition at 1 µM was found to be 17% in experiment [1] and 52% in experiment [2].

`CN(CCCN1CCC(c2ccccc2)(N(C)C)CC1)C(=O)CCc1cn(C)c2ccccc12` [Example 50, N-(3-(4-(Dimethylamino)-4-phenylpiperidin-1-yl)propyl)-N-methyl-3-(1-methyl-1H-indol-3-yl)propanamide]: the inhibition at 1 µM in experiment [1] worked out at 39%; in experiment [2] it was 79%.

`CN(CCN1CCC(c2ccccc2)(N2CCCC2)CC1)C(=O)c1cc2cc(F)ccc2[nH]1` [Example 51, 5-Fluoro-N-methyl-N-(2-(4-phenyl-4-(pyrrolidin-1-yl)piperidin-1-yl)ethyl)-1H-indole-2-carboxamide]: the inhibition at 1 µM in experiment [1] turned out to be 26%; in experiment [2], 43%.

`CCCCC1(N(C)C)CCN(CCN(C)C(=O)c2cc3cc(F)ccc3[nH]2)CC1` [Example 52, N-(2-(4-Butyl-4-(dimethylamino)piperidin-1-yl)ethyl)-5-fluoro-N-methyl-1H-indole-2-carboxamide]: the results for the inhibition at 1 µM in experiment [1] and in experiment [2] were 28% and 65%, respectively.

In the case of `CN(CCCN1CCC(c2ccccc2)(N(C)C)CC1)C(=O)c1cc2cc(F)ccc2[nH]1` [Example 53, N-(3-(4-(Dimethylamino)-4-phenylpiperidin-1-yl)propyl)-5-fluoro-N-methyl-1H-indole-2-carboxamide], the inhibition at 1 µM turned out to be 73% in experiment [1] and 90% in experiment [2].

Turning to `CN(CCCN1CCC(c2ccccc2)(N(C)C)CC1)C(=O)c1ccc2cc[nH]c2c1` [Example 56, N-(3-(4-(Dimethylamino)-4-phenylpiperidin-1-yl)propyl)-N-methyl-1H-indole-6-carboxamide], the inhibition at 1 µM worked out at 35% in experiment [1] and 71% in experiment [2].

For `CCCCC1(N(C)C)CCN(CCN(C)C(=O)CC(C)c2c[nH]c3ccccc23)CC1` (stereo not drawn) [Example 58, N-(2-(4-Butyl-4-(dimethylamino)piperidin-1-yl)ethyl)-3-(1H-indol-3-yl)-N-methylbutanamide], the inhibition at 1 µM is 20% in experiment [1] and 77% in experiment [2].

For `CC(CC(=O)N(C)CCCN1CCC(c2ccccc2)(N(C)C)CC1)c1c[nH]c2ccccc12` (stereo not drawn) [Example 59, N-(3-(4-(Dimethylamino)-4-phenylpiperidin-1-yl)propyl)-3-(1H-indol-3-yl)-N-methylbutanamide], the inhibition at 1 µM was 60% in experiment [1] and 86% in experiment [2].

`CCCCC1(N(C)C)CCN(CCN(C)C(=O)CCc2c[nH]c3ccccc23)CC1` [Example 60, N-(2-(4-Butyl-4-(dimethylamino)piperidin-1-yl)ethyl)-3-(1H-indol-3-yl)-N-methylpropanamide]: the inhibition at 1 µM in experiment [1] is 45%; in experiment [2], 81%.

`CN(CCCN1CCC(c2ccccc2)(N(C)C)CC1)C(=O)CCc1c[nH]c2ccccc12` [Example 61, N-(3-(4-(Dimethylamino)-4-phenylpiperidin-1-yl)propyl)-3-(1H-indol-3-yl)-N-methylpropanamide]: the results for the inhibition at 1 µM in experiment [1] and in experiment [2] were 65% and 89%, respectively.

Turning to `CN(CCN1CCC(c2ccccc2)(N2CCCC2)CC1)C(=O)Cc1c[nH]c2ccc(Br)cc12` [Example 62, 2-(5-Bromo-1H-indol-3-yl)-N-methyl-N-(2-(4-phenyl-4-(pyrrolidin-1-yl)piperidin-1-yl)ethyl)acetamide], the inhibition at 1 µM worked out at 14% in experiment [1] and 57% in experiment [2].

As to `CN(CCCN1CCC(c2ccccc2)(N(C)C)CC1)C(=O)Cc1c[nH]c2ccc(Br)cc12` [Example 63, 2-(5-Bromo-1H-indol-3-yl)-N-(3-(4-(dimethylamino)-4-phenylpiperidin-1-yl)propyl)-N-methylacetamide], the inhibition at 1 µM in experiment [1] is 41%; in experiment [2], 81%.

(Values after patent publication US9206156B2, “Substituted indole derivatives” (GRÜNENTHAL GMBH, priority 2008, dated 2015).)
